Source: patent US6423519B1, “Compositions and methods for inhibiting fungal growth” (GPC Biotech Inc., priority 1998, dated 2002)
Converted amounts (≈) assume the structure as drawn. Like-named read-outs stand apart in the source and are kept apart here.

Tests used:
C. albicans = assay: Determination of minimum fungicidal concentration (MFC); assay type: cell-based; settings: Candida albicans
Method: After the required time course for the MIC determination, the minimum fungicidal concentration can then be determined by plating out the entire contents of the well of the microtitre plates onto YPD or Sabourand plates. These plates are then incubated at 35° C. for 24-48 hrs. The MFC corresponds to the concentration of compound where no cellular growth is observed on the plate. For compound 99a, and MFC was calculated of 2 μg/ml.

human GGTase = human GGTase (Homo sapiens, UniProt P53609); assay: Human GGTase inhibition (Hu GG); assay type: biochemical
Excerpt: As described below, a variety of different compounds were synthesized and tested for inhibitory activity against human and Candida GGTase. Exemplary synthesis schemes for generating prenyltransferase inhibitors useful in the methods and compositions of the present invention are shown in FIGS. 1-56. Tables 1-5 provide Structure-Activity relationship (SAR) data for several different classes of prenyltransferase inhibitors.

H460 Cell Line = assay: Cytotoxicity of GGPTase inhibitors in human cells, H460 (Sulforhodamine B); assay type: cell-based; settings: NCI-H460, read-out: Human cell IC50 (nM) H460
Method: (§1) (A) Plate out cells at predetermined concentration in a volume of 150 μl.
(§2) (B) Allow cells to adhere to plate for twenty four hours
(§3) (C) Add compounds to cells at predetermined concentration (62.5 μg/mL down four-fold, 8 dilutions) n=2
(§4) (D) Cells are exposed to drug for 7 days for the IMR90 Cell Line, and a period of 3 days for the H460 Cell Line.
(E) 1. H460 Cells are fixed in TCA, rinsed, stained with Sulforhodamine B stain, and the stain is solubilized for a final OD read.

IMR90 Cell Line = assay: Cytotoxicity of GGPTase inhibitors in human cells, IMR90 (MTT); assay type: cell-based; settings: IMR-90, read-out: Human cell IC50 (nM) IMR90
Method: as §1, §2, §3, §4
2. IMR90 Cells have 3-{4,5-Dimethylthiazol-2-yl}-2,5-diphenyltetrazolium bromide (MTT) added to them for three hours prior to final read out. After the three hours, media and MTT are removed and MTT crystals are solubilized in 100% DMSO for final OD read.

MycCaRHO1 = assay: Prenylation state / localisation of newly synthesized MycCaRHO1 (fractionation, Western blot); assay type: cell-based, C. albicans; settings: 3 μg/ml, strain DIY-BL2-058, versus mock (DMSO) treated cells
Method: To look at the effect of GGPTase I inhibitors in vivo a recombinant C. albicans strain engineered to express a Myc tagged CaRHO1 under the control of the C. albicans phosphoenolpyruvate carboxykinase 1 (PCK1) promoter is used. This promoter is repressed by glucose and derepressed by gluconeogenic carbon sources such as succinate. It should also be possible to be look at the endogenous substrates of the GGPTase I. Cells are treated with a sublethal dose of compound for a period of time which has been established from a kill curve analysis in the appropriate media. After the treatment time, cells are harvested and whole cell extracts (WCE) made, these extracts are then resolved by high speed centrifugation into cytosolic and membrane fractions. Visualisation of the localisation of the MycCaRHO1 is achieved by sodium dodecyl sulfate-polyacrylamide gel electrophoresis (SDS-PAGE) and Western blotting. […]
Cells of strain DIY-BL2-058 were grown overnight in YNB supplemented with 1 μg/ml histidine, 2 μg/ml methionine, 2 μg/ml tryptophan, 200 μg/ml glutamine and 2% glucose at 220 rpm at 31° C. The cell number was then determined, cells were pelleted by centrifugation and resuspended in fresh media at a density of 1×10^7 cells/ml and incubated as above. […]
Fractions were thawed on ice. The protein concentration was determined using the standard Bradford method for the WCEs and cytosolic fraction. […]

C. albicans GGPTase = target: T1, C. albicans GGPTase (Candida albicans, UniProt Q8J224+Q9Y764); assay: biochemical
T1 sequence (Q9Y764 1-398): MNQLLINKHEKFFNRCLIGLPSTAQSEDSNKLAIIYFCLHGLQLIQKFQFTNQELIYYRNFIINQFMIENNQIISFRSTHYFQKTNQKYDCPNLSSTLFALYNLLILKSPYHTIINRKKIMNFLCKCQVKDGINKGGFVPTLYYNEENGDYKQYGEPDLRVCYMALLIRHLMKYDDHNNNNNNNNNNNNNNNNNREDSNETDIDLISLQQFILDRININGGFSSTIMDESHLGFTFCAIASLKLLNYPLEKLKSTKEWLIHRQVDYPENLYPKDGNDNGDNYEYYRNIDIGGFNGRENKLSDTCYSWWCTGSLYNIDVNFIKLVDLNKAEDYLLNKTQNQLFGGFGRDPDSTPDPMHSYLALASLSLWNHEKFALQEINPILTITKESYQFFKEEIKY
T1 sequence (Q8J224 1-306): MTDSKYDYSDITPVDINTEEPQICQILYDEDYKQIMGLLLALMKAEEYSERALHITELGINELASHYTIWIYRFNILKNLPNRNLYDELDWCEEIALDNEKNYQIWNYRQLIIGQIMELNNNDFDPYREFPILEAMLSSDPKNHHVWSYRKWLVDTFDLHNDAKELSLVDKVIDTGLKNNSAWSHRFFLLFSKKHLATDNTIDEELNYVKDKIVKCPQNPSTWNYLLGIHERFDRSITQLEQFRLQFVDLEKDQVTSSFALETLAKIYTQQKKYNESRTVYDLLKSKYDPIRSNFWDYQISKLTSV
Method: Plate test compounds (10 μL per well) at predetermined concentration in 50% DMSO. For background control (blank) and reaction control (negative), add 10 μL of 200 μM GGPP and 10 μL 50% DMSO, respectively. Prepare assay buffer: 50 mM Tris, pH7.5, 20 mM KCL, 5 mM MgCl2, 5 μM ZnCl2, 0.5 mM Zw(3-14), 2 mM DTT and 0.1 mg/mL BSA.
Add 20 μL of C. albicans GGPTase and ^3H-GGPP in assay buffer to test compound. Preincubate enzyme and ^3H-GGPP with test compound for 15 minutes at room temperature. Add 20 μL C. albicans Rho in assay buffer. Incubate for 30 minutes at room temperature. Final assay conditions are 2 nM C. albicans GGPTase, 250 nM ^3H-GGPP and 250 nM C. albicans Rho.
Add 100 μL 15 mM GGPP, 50 mM Tris, pH7.0 and 2% BSA to quench reaction. Transfer reaction to Nickel chelate FlashPlate. Allow his-tagged C. albcians Rho to capture onto plate. Rinse plate 1× with 200 μL 20 mM Tris, pH7.0. Read in TOPCOUNT.

CC(C)C[C@H](NC(=O)C1(c2ccccc2)CCN(C(=O)[C@@H](N)CS)CC1)C(=O)N[C@@H](C)C(=O)O [Compound 99a]
MFC (C. albicans; read-out: Candida MFC (g/mL)): 2 µg/mL (≈ 4.06 µM) | MFC (C. albicans; read-out: MFC): 2 µg/mL (≈ 4.06 µM) | IC50 (human GGTase; Table 3 Piperidine Analogs, read-out: IC50 (nM) Hu GG): > 500 nM | IC50 (human GGTase; Table 5, read-out: IC50 (nM) Human): > 500 nM | IC50 (H460 Cell Line): > 10000 nM | IC50 (IMR90 Cell Line): > 10000 nM | abundance of MycCaRHO1 in the cytosolic fraction (FIG. 57) (MycCaRHO1): increases the abundance of MycCaRHO1 in the cytosolic fraction | IC50 (C. albicans GGPTase; Table 3 Piperidine Analogs, read-out: IC50 (nM) Ca GG): < 50 nM | IC50 (C. albicans GGPTase; Table 5, read-out: IC50 (nM) Candida): < 50 nM
